# Data reported in patent US6602914B2, “Compounds and methods for the inhibition of the expression of VCAM-1” (AtheroGenics, Inc., priority 1997, dated 2003).
# Test system: ApoB/HepG2
# Test: Lipid Screen & IC50 Determination Protocol: ApoB ELISA of HEPG2 media
# Assay type: cell-based, human
# Settings: HEPG2, 24 hours; bare number = IC50; NE not defined in the patent; read-out: ApoB/HepG2 IC50 or % inhibition at [μM]: IC50
# Protocol: HEPG2 cell was started in 10 ml of MEM, 10% FBS, 1 mM Sodium Pyruvate. The cells were incubated in a tissue culture incubator. The cells were split into 4×96-wells plate in MEM, 10% FBS, 1 mM Sodium Pyruvate and allowed to grow to about 50% confluency and then removed.
# The cells were treated with the desired concentration of compounds in 100 μl DMEM, 1% RSA for 24 hours. The compounds are dissolved in DMSO.
# On the same day, 4×96-wells NuncImmunoSorb plate is coated with 100 μl of mouse anti-human ApoB monoclonal 1D1 (1:1000 dilution in 1×PBS, pH 7.4). The coating is allowed overnight.
# The coated plate is washed 3 times with 1×PBS, pH 7.4, −0.05% Tween 20. 100 μl of the standards is added to the selected wells. ApoB standards are prepared at 6.25, 3.12, 1.56, 0.78, 0.39 ng, and each concentration is done in triplicates. For samples:
# 90 μl of 1×PBS, pH 7.4, −0.05% Tween 20 is added to each well corresponding to the sample. 10 μl of media is transferred from the treated HEPG2 plates to the ApoB ELISA plate. The plate is incubated at room temperature for 2 hours, rocking gently.
# Wash the coated plate 3× with 1×PBS, pH 7.4, −0.05% Tween 20. Add 100 μl of sheep anti-human ApoB polyclonal from Boehringer Mannheim. (1:2000 dilution in 1×PBS, pH 7.4, −0.05% Tween 20) from Boehringer Mannheim. Incubate at room temperature for 1 hour, rocking gently. Wash the coated plate 3× with 1×PBS, pH 7.4, −0.05% Tween 20. Add 100 μl of rabbit anti-sheep IgG (1:2000 dilution in 1×PBS, pH 7.4, −0.05% Tween 20). Incubate at room temperature for 1 hour, rocking gently. Wash the coated plate 3× with 1×PBS, pH 7.4, −0.05% Tween 20. Add 100 μl of substrate (10 ml of distilled water, 100 μl of TMB (10 mg/ml), and 1 μl of hydrogen peroxide). Allow color to emerge and stop reaction with 25 ul of 8N sulfuric acid. Wells are read with MicroPlate Reader @ […]. Graph accumulation of ApoB in media as a percentage of control for each sample and their concentration. A determination of IC50 is obtained from the graph.
# The degree of inhibition of the compounds of formulas (I) and (II) was determined by the assays described in Examples 62-64.
row,Compound,IC50 [µM]
1,"COc1c(C(C)(C)C)cc(SCc2ccc(C(F)(F)F)cc2)cc1C(C)(C)C [2,6-di-tert-butyl-1-methoxy-4-thio(4′-trifluoromethyl)benzyl)benzene]",< 10
2,"CCCCC(OC(C)=O)Sc1cc(C(C)(C)C)c(O)c(C(C)(C)C)c1 (stereo not drawn) [2,6-di-tert-butylthio((1′-(acetoxy))pentyl)phenol]",30

# Same assay, conditions: Homo sapiens; at 5 μM; HEPG2, 24 hours
row,Compound,inhibition at 5 µM [%]
1,"CC(C)(Sc1cc(C(C)(C)C)c(O)c(C(C)(C)C)c1)Sc1cc(C(C)(C)C)c(OC(=O)CN)c(C(C)(C)C)c1 [Glycine, 4-[[1-[[3,5-bis(1,1-dimethylethyl)-4-hydroxyphenyl]thio]-1-methylethyl]thio]-2,6-bis(1,1-dimethylethyl)phenyl ester]",30

# Same assay, conditions: Homo sapiens; at 15 μM; HEPG2, 24 hours
row,Compound,inhibition at 15 µM [%]
1,"CC(C)(Sc1cc(C(C)(C)C)c(O)c(C(C)(C)C)c1)Sc1cc(C(C)(C)C)c(OC(=O)c2ccc([N+](=O)[O-])o2)c(C(C)(C)C)c1 [2-Furancarboxylic acid, 5-nitro-, 4-[[1-[[3,5-bis(1,1-dimethylethyl)-4-hydroxyphenyl]thio]-1-methylethyl]thio]-2,6-bis(1,1-dimethylethyl)phenyl ester]",17
2,"CC(C)(CO)CC(=O)Oc1c(C(C)(C)C)cc(SC(C)(C)Sc2cc(C(C)(C)C)c(O)c(C(C)(C)C)c2)cc1C(C)(C)C [Butanoic acid, 4-hydroxy-3,3-dimethyl-, 4-[[1-[[3,5-bis(1,1-dimethylethyl)-4-hydroxyphenyl]thio]-1-methylethyl]thio]-2,6-bis(1,1-dimethylethyl)phenyl ester]",90
3,"CC(C)(Sc1cc(C(C)(C)C)c(O)c(C(C)(C)C)c1)Sc1cc(C(C)(C)C)c(OCC(=O)N[C@@H](CCC(=O)O)C(=O)O)c(C(C)(C)C)c1 [Glutamic acid, N-[[4-[[1-[[3,5-bis(1,1-dimethylethyl)-4-hydroxyphenyl]thio]-1-methylethyl]thio]-2,6-bis(1,1-dimethylethyl)phenoxy]acetyl]-]",94
4,"CC(C)(Sc1ccc(OCCCC(=O)O)cc1)Sc1cc(C(C)(C)C)c(O)c(C(C)(C)C)c1 [Butanoic acid, 4-[4-[[1-[[3,5-bis(1,1-dimethylethyl)-4-hydroxyphenyl]thio]-1-methylethyl]thio]phenoxy]-]",47
5,"CC(C)(Sc1cc(C(C)(C)C)c(O)c(C(C)(C)C)c1)Sc1cc(C(C)(C)C)c(OCCCC(=O)O)c(C(C)(C)C)c1 [Butanoic acid, 4-[4-[[1-[[3,5-bis(1,1-dimethylethyl)4-hydroxyphenyl]thio]-1-methylethyl]thio]-2,6-bis(1,1-dimethylethyl)phenoxy]-]",77
6,"CC(C)(Sc1cc(C(C)(C)C)c(O)c(C(C)(C)C)c1)Sc1cc(C(C)(C)C)c(OCC(O)CNCC(=O)O)c(C(C)(C)C)c1 (stereo not drawn) [Glycine, N-[3-[4-[[1-[(3,5-bis(1,1-dimethylethyl)-4-hydroxyphenyl]thio]-1-methylethyl]thio]-2,6-bis(1,1-dimethylethyl)phenoxy]2-hydroxypropyl]-]",45
7,"Cc1cc(SC(C)(C)Sc2cc(C(C)(C)C)c(O)c(C(C)(C)C)c2)cc(C)c1OCCCC(=O)O [Butanoic acid, 4-[4-[[1-[[3,5-bis(1,1-dimethylethyl)-4-hydroxyphenyl]thio]-1-methylethyl]thio]2,6-dimethylphenoxy]-]",41
8,"CC(C)(Sc1cc(C(C)(C)C)c(O)c(C(C)(C)C)c1)Sc1cc(C(C)(C)C)c(OCC(O)CO)c(C(C)(C)C)c1 (stereo not drawn) [1,2-Propanediol, 3-[4-[[1-[[3,5-bis(1,1-dimethylethyl)-4-hydroxyphenyl]thio]-1-methylethyl]thio]-2,6-bis(1,1-dimethylethyl)phenoxy]-]",40

# Same assay, conditions: at 1 μM; HEPG2, 24 hours
row,Compound,ApoB/HepG2 % inhibition at [μM] [% at 1]
1,"1,2,3-Butanetriol, 4-[4-[[1-[[3,5-bis(1,1-dimethylethyl)-4-hydroxyphenyl]thio]=1-methylethyl]thio]-2,6-bis(1,1-dimethylethyl)phenoxy]-2-hydroxypropyl]-",6

# Same assay, conditions: at 15 μM; HEPG2, 24 hours
row,Compound,ApoB/HepG2 % inhibition at [μM] [% at 15]
1,"CC(C)(Sc1cc(C(C)(C)C)c(O)c(C(C)(C)C)c1)Sc1cc(C(C)(C)C)c(OCC(=O)NCC(=O)O)c(C(C)(C)C)c1 [Glycine, N-[[4-[[1-[[3,5-bis(1,1-dimethylethyl)-4-hydroxyphenyl]thio]-1,methylethyl]thio]-2,6-bis(1,1-dimethylethyl)phenoxylacetyl]-]",83
2,"CC(C)(Sc1cc(C(C)(C)C)c(O)c(C(C)(C)C)c1)Sc1cc(C(C)(C)C)c(OC(=O)CCCO)c(C(C)(C)C)c1 [Butanoic acid, 4-hydorxy-, 4-[[1-[[3,5-bis(1,1-dimethylethyl)-4-hydroxyphenyl]thio]-1-methylethyl]thio]-2,6-bis(1,1-dimethylethyl)phenyl ester]",81
3,"CC(C)(Sc1cc(C(C)(C)C)c(O)c(C(C)(C)C)c1)Sc1cc(C(C)(C)C)c(OC(=O)CCC(=O)O)c(C(C)(C)C)c1.N=C(N)NCCC[C@H](N)C(=O)O [L-Arginine, mono[4-[[1-[[3,5-bis(1,1-dimethylethyl)-4-hydroxyphenyl]thio]-1-methylethyl]thio]-2,6-bis(1,1-dimethylethyl)phenyl butanedioate]]",93
4,"COc1c(C(C)(C)C)cc(SC(C)(C)Sc2cc(C(C)(C)C)c(OC(=O)CCC(=O)O)c(C(C)(C)C)c2)cc1C(C)(C)C [Butanedioic acid, mono[4-[[1-[[3,5-bis(1,1-dimethylethyl)-4-methoxyphenyl]thiol]1-methylethyl]thiol-2,6-bis(1,1-dimethylethyl)phenyl] ester]",89

# Test system: VCAM-1
# Test: VCAM-1 Assay: TNF-stimulated cells, cell-surface ELISA
# Assay type: cell-based
# Settings: bare number = IC50; NE not defined in the patent; read-out: VCAM-1 IC50 or % inhibition at [μM]: IC50
# Protocol: Two to four confluent P150 plates are trypsinized and the cells transferred to a 50 mL conical centrifuge tube. The cells are pelleted, resuspended, and counted using the trypan blue exclusion method.
# Cells are resuspended at a concentration of 36,000 cells/mL and 1 mL is aliquoted per well.
# Cells are split into 24 well tissue culture plates. The cells in each well should be approximately 90-95% confluent by the following day. Cells should not be older than passage 8.
# Compounds are initially screened at 50 μM and 10 μM. A 50 mM stock solution for each compound is prepared in culture medium. The stock solution is diluted to 5 mM and 1 mM. When 10 μL of the 5 mM solution is added to the well (1 mL medium/well), the final concentration will be 50 μM. Adding 10 μL of the 1 mM solution to the well will give a final concentration of 10 μM.
# Compounds which will not go into solution in culture medium are resuspended in DMSO at a concentration of 25 mM. The stock solution is then diluted to the final concentration in culture medium. The old medium is aspirated and 1 mL of the new medium with the compound is added. For example, if the final concentration is 50 μM, the 2 μL of the 25 mM stock is added per mL of culture medium. The […] solution is diluted for lower concentrations.
# The compounds are added to the plate (each compound is done in duplicate). One plate is done for VCAM expression and one plate is done for ICAM expression.
# Immediately after the compounds are added, TNF is added to each well. 100 units/mL TNF is usually added to each well. Since each lot of TNF varies in the number of units, each new lot is titrated to determine the optimum concentration. Therefore this concentration will change. If 100 units/mL is bing used, dilute the TNF to 10 units/μL and add 10 μL to each well.
# The plates are incubated at 37° C., 5% CO2 overnight (approximately 16 hours). The next day the plates are checked under the microscope to see if there are any visual signs of toxicity. Records are made of any cell death, debris, or morphology changes, as well as insoluble compounds (particulate or turbity).
# In order to assess MCP-1, the media (500 μL) is saved and frozen at −70° C. Wash cells once with roughly 1 ml/well of Hanks Balance Salt Solution (HBSS) or PBS. Gently empty the wash solution and then tap the plate onto paper towels. Add either 250 μL/well of HBSS +5% FCCS to the plank (no primary antibody wells) or 250 μL/well of primary antibody diluted in HBSS +5% FCS. Incubate for 30 minutes at 37° C. Wash the wells twice with 0.5 mL/well HBSS or PBS and gently tap the plates onto paper towels after the last wash. Add 250 μL/well of HRP-conjugated second antibody diluted in HBSS +5% FCS to every well including the blank wells (no primary antibody). Incubate at 37° C. for 30 minutes. Wash the wells four times with 0.5 mL/well HBSS or PBS and gently tap the plates onto paper towels after the last wash. Add 250 μL/well of substrate solution. Incubate at room temperature in the dark until there is adequate color development (blue). Note the length of time incubation was performed (typically 15-30 minutes). Add 75 μL/well stopper solution (8N sulfuric acid), and read A450 nm.
row,Compound,IC50 [µM]
1,"Oxiranemethanol, α-[[[3-[[4-[[1-[[3,5-bis(1,1-dimethylethyl)-4-hydroxyphenyl]thio]-1-methylethyl]thio]-2,6-bis(1,1-dimethylethyl)phenoxy]methyl]oxiranyl]methoxy]methyl]-",60
2,"CC(C)(C)c1cc(SCCc2ccc([N+](=O)[O-])cc2)cc(C(C)(C)C)c1O [2,6-di-tert-butyl-4-thio(4′-nitrophenethyl)phenol]",15
